Experimental data published in ChEMBL document CHEMBL1208667, “Permanent positive charge strongly influences DNA/RNA binding and antiproliferative activity of urea-phenanthridinium conjugates” (Eur J Med Chem, 2010).
Calls of active or inactive are those of the source. The calls are words filed in the database; no cut-off is given here.

Tests used:
Calf thymus DNA [1] = test: Binding affinity to calf thymus DNA in citric acid buffer at pH 5 by fluorescence titration assay relative to control; format: nucleic-acid assay; conditions: Bos taurus
Calf thymus DNA [2] = test: Binding affinity to calf thymus DNA in citric acid buffer at pH 5 by fluorescence titration assay; format: nucleic-acid assay; conditions: Bos taurus
Nucleic Acid [3] = test: Binding affinity to poly dA-poly dT RNA in citric acid buffer at pH 5 by fluorescence titration assay; format: nucleic-acid assay
Nucleic Acid [4] = test: Binding affinity to poly A-poly U RNA in citric acid buffer at pH 5 by fluorescence titration assay relative to control; format: nucleic-acid assay
Nucleic Acid [5] = test: Binding affinity to poly A-poly U RNA in citric acid buffer at pH 5 by fluorescence titration assay; format: nucleic-acid assay
Nucleic Acid [6] = test: Binding affinity to poly G-poly C RNA in citric acid buffer at pH 5 by fluorescence titration assay; format: nucleic-acid assay
Calf thymus DNA [7] = test: Binding affinity to calf thymus DNA in sodium cacodylate buffer at pH 7 by fluorescence titration assay relative to control; format: nucleic-acid assay; conditions: Bos taurus
Calf thymus DNA [8] = test: Binding affinity to calf thymus DNA in sodium cacodylate buffer at pH 7 by fluorescence titration assay; format: nucleic-acid assay; conditions: Bos taurus
Nucleic Acid [9] = test: Binding affinity to poly dA-poly dT RNA in sodium cacodylate buffer at pH 7 by fluorescence titration assay relative to control; format: nucleic-acid assay
Nucleic Acid [10] = test: Binding affinity to poly A-poly U RNA in sodium cacodylate buffer at pH 7 by fluorescence titration assay relative to control; format: nucleic-acid assay
Nucleic Acid [11] = test: Binding affinity to poly A-poly U RNA in sodium cacodylate buffer at pH 7 by fluorescence titration assay; format: nucleic-acid assay
Nucleic Acid [12] = test: Binding affinity to poly G-poly C RNA in sodium cacodylate buffer at pH 7 by fluorescence titration assay relative to control; format: nucleic-acid assay
Nucleic Acid [13] = test: Binding affinity to poly G-poly C RNA in sodium cacodylate buffer at pH 7 by fluorescence titration assay; format: nucleic-acid assay
Nucleic Acid [14] = test: Binding affinity to poly dA-poly dT RNA in sodium cacodylate buffer at pH 7 by UV-v titration assay; format: nucleic-acid assay
Calf thymus DNA [15] = test: Binding affinity to calf thymus DNA assessed as change in melting temperature at compound to DNA molar ratio of 0.2 at pH 5 by thermal denaturation assay; format: nucleic-acid assay; conditions: Bos taurus
Calf thymus DNA [16] = test: Binding affinity to calf thymus DNA assessed as change in melting temperature at compound to DNA molar ratio of 0.3 at pH 5 by thermal denaturation assay; format: nucleic-acid assay; conditions: Bos taurus
Nucleic Acid [17] = test: Binding affinity to […] assessed as change in melting temperature at compound to DNA molar ratio of 0.2 at pH 5 by thermal denaturation assay; format: nucleic-acid assay
Nucleic Acid [18] = test: Binding affinity to poly A-poly U RNA assessed as change in melting temperature at compound to DNA molar ratio of 0.2 at pH 5 by thermal denaturation assay; format: nucleic-acid assay
Calf thymus DNA [19] = test: Binding affinity to calf thymus DNA assessed as change in melting temperature at compound to DNA molar ratio of 0.3 at pH 7 by thermal denaturation assay; format: nucleic-acid assay; conditions: Bos taurus
Nucleic Acid [20] = test: Binding affinity to […] assessed as change in melting temperature at compound to DNA molar ratio of 0.2 at pH 7 by thermal denaturation assay; format: nucleic-acid assay
Nucleic Acid [21] = test: Binding affinity to poly A-poly U RNA assessed as change in melting temperature at compound to DNA molar ratio of 0.3 at pH 7 by thermal denaturation assay; format: nucleic-acid assay
Calf thymus DNA [22] = test: Binding affinity to calf thymus DNA at compound to DNA molar ratio of 0.1 to 0.5 at pH 5 by circular dichroism; format: nucleic-acid assay; conditions: Bos taurus
Nucleic Acid [23] = test: Binding affinity to poly A-poly U RNA at compound to DNA molar ratio of 0.1 to 0.5 at pH 5 by circular dichroism; format: nucleic-acid assay
Nucleic Acid [24] = test: Binding affinity to poly A-poly U RNA at compound to DNA molar ratio of 0.1 to 0.5 at pH 7 by circular dichroism; format: nucleic-acid assay
MIA PaCa-2 [25] = test: Cytotoxicity against human MIAPaCa2 cells at 100 uM after 72 hrs by MTT assay; format: functional; conditions: MIA PaCa-2, 72 h
MIA PaCa-2 [26] = test: Cytotoxicity against human MIAPaCa2 cells after 72 hrs by MTT assay; format: functional, cell-based
MIA PaCa-2 [27] = test: Cytotoxicity against human MIAPaCa2 cells at 0.1 to 100 uM after 72 hrs by MTT assay; format: functional, cell-based
HEp-2 = test: Cytotoxicity against human Hep2 cells at 0.1 to 100 uM after 72 hrs by MTT assay; format: functional, cell-based
HT-29 = test: Cytotoxicity against human HT-29 cells at 0.1 to 100 uM after 72 hrs by MTT assay; format: functional, cell-based
Nucleic Acid [28] = test: Binding affinity to AMP in citric acid buffer at pH 5 by fluorescence titration assay relative to control; format: nucleic-acid assay
Nucleic Acid [29] = test: Binding affinity to GMP in citric acid buffer at pH 5 by fluorescence titration assay relative to control; format: nucleic-acid assay
Nucleic Acid [30] = test: Binding affinity to CMP in citric acid buffer at pH 5 by fluorescence titration assay relative to control; format: nucleic-acid assay
Nucleic Acid [31] = test: Binding affinity to UMP in citric acid buffer at pH 5 by fluorescence titration assay relative to control; format: nucleic-acid assay
Nucleic Acid [32] = test: Binding affinity to GMP in sodium cacodylate buffer at pH 7 by fluorescence titration assay relative to control; format: nucleic-acid assay
Calf thymus DNA [33] = test: Binding affinity to calf thymus DNA assessed as melting temperature at compound to DNA molar ratio of 0.2 at pH 5 by thermal denaturation assay; format: nucleic-acid assay; conditions: Bos taurus
Calf thymus DNA [34] = test: Binding affinity to calf thymus DNA assessed as melting temperature at compound to DNA molar ratio of 0.3 at pH 5 by thermal denaturation assay; format: nucleic-acid assay; conditions: Bos taurus
Nucleic Acid [35] = test: Binding affinity to […] assessed as melting temperature at compound to DNA molar ratio of 0.3 at pH 5 by thermal denaturation assay; format: nucleic-acid assay
Nucleic Acid [36] = test: Binding affinity to poly A-poly U RNA assessed as melting temperature at compound to DNA molar ratio of 0.2 at pH 5 by thermal denaturation assay; format: nucleic-acid assay
Calf thymus DNA [37] = test: Binding affinity to calf thymus DNA assessed as melting temperature at compound to DNA molar ratio of 0.2 at pH 7 by thermal denaturation assay; format: nucleic-acid assay; conditions: Bos taurus
Calf thymus DNA [38] = test: Binding affinity to calf thymus DNA assessed as melting temperature at compound to DNA molar ratio of 0.3 at pH 7 by thermal denaturation assay; format: nucleic-acid assay; conditions: Bos taurus
Nucleic Acid [39] = test: Binding affinity to […] assessed as melting temperature at compound to DNA molar ratio of 0.2 at pH 7 by thermal denaturation assay; format: nucleic-acid assay
Nucleic Acid [40] = test: Binding affinity to […] assessed as melting temperature at compound to DNA molar ratio of 0.3 at pH 7 by thermal denaturation assay; format: nucleic-acid assay
Nucleic Acid [41] = test: Binding affinity to poly A-poly U RNA assessed as melting temperature at compound to DNA molar ratio of 0.2 at pH 7 by thermal denaturation assay; format: nucleic-acid assay
Nucleic Acid [42] = test: Binding affinity to poly A-poly U RNA assessed as biphasic transitions of change in melting temperature at compound to DNA molar ratio of 0.2 at pH 5 by thermal denaturation assay; format: nucleic-acid assay
Nucleic Acid [43] = test: Binding affinity to poly A-poly U RNA assessed as biphasic transitions of melting temperature at compound to DNA molar ratio of 0.2 at pH 5 by thermal denaturation assay; format: nucleic-acid assay

`Cc1c2cc(NC(=O)NCCCCCCCCCNC(=O)Nc3ccc4c(c3)c(C)[n+](C)c3ccccc43)ccc2c2ccccc2[n+]1C.O=S(=O)([O-])O.O=S(=O)([O-])O` was tested, and the RFU (Calf thymus DNA [1]) was 0.3, the log Ks (Calf thymus DNA [2]) was 5.6 and the log Ks (Nucleic Acid [3]) was 6.6. The RFU (Nucleic Acid [4]) was 8.1, the log Ks (Nucleic Acid [5]) was 5.4 and the log Ks (Nucleic Acid [6]) was 5.2. For the same compound, the RFU (Calf thymus DNA [7]) was 0.7, the log Ks (Calf thymus DNA [8]) was 5.9 and the RFU (Nucleic Acid [9]) was 3.9. It also gave an RFU (Nucleic Acid [10]) of 4, a log Ks (Nucleic Acid [11]) of 5.8 and an RFU (Nucleic Acid [12]) of 0.5. For the same compound, the log Ks (Nucleic Acid [13]) was 5.4, the log Ks (Nucleic Acid [14]) was 5.3 and the ΔTm (Calf thymus DNA [15]) was 13.2 °C. For the same compound, the ΔTm (Calf thymus DNA [16]) was 13.4 °C, the ΔTm (Nucleic Acid [17]) was 7.5 °C and the ΔTm (Nucleic Acid [18]) was 1.8 °C. For the same compound, the ΔTm (Calf thymus DNA [19]) was 5.8 °C, the ΔTm (Nucleic Acid [20]) was 4.2 °C and the ΔTm (Nucleic Acid [21]) was 2.1 °C. The Activity (Calf thymus DNA [22]) was “Active”, the Activity (Nucleic Acid [23]) was “Active” and the Activity (Nucleic Acid [24]) was “Active”. The inhibition at 100 µM (MIA PaCa-2 [25]) was 26.8%, the Activity (MIA PaCa-2 [26]) was “Dose-dependent effect” and the Activity (MIA PaCa-2 [27]) was “inactive”. For the same compound, the Activity (HEp-2) was “inactive”, the Activity (HT-29) was “inactive” and the RFU (Nucleic Acid [28]) was -38.5. The RFU (Nucleic Acid [29]) was -7.2, the RFU (Nucleic Acid [30]) was -6.4 and the RFU (Nucleic Acid [31]) was -15.8. For the same compound, the RFU (Nucleic Acid [32]) was -16.7, the Tm (Calf thymus DNA [33]) was 73.8 °C and the Tm (Calf thymus DNA [34]) was 74 °C. For the same compound, the Tm (Nucleic Acid [35]) was 57.7 °C, the Tm (Nucleic Acid [36]) was 82.9 °C and the Tm (Calf thymus DNA [37]) was 84.2 °C. For the same compound, the Tm (Calf thymus DNA [38]) was 85.1 °C, the Tm (Nucleic Acid [39]) was 69.1 °C and the Tm (Nucleic Acid [40]) was 70.4 °C. The Tm (Nucleic Acid [41]) was 53.8 °C, the ΔTm (Nucleic Acid [42]) was -1.3 °C and the Tm (Nucleic Acid [43]) was 31 °C.

With `Cc1c2cc(NC(=O)NCCNC(=O)Nc3ccc4c(c3)c(C)[n+](C)c3ccccc43)ccc2c2ccccc2[n+]1C.O=S(=O)([O-])O.O=S(=O)([O-])O` the RFU (Calf thymus DNA [1]) was 2.6, the log Ks (Calf thymus DNA [2]) was 6.4 and the log Ks (Nucleic Acid [3]) was 6.1. It also gave an RFU (Nucleic Acid [4]) of 2.3, a log Ks (Nucleic Acid [5]) of 6.6 and a log Ks (Nucleic Acid [6]) of 5.5. It also gave an RFU (Calf thymus DNA [7]) of 3, a log Ks (Calf thymus DNA [8]) of 6.1 and an RFU (Nucleic Acid [9]) of 15. For the same compound, the RFU (Nucleic Acid [10]) was 9.2, the log Ks (Nucleic Acid [11]) was 5.3 and the RFU (Nucleic Acid [12]) was 0.7. The log Ks (Nucleic Acid [13]) was 5.4, the log Ks (Nucleic Acid [14]) was 5 and the ΔTm (Calf thymus DNA [15]) was 12.1 °C. The ΔTm (Calf thymus DNA [16]) was 15 °C, the ΔTm (Nucleic Acid [17]) was 9.4 °C and the ΔTm (Nucleic Acid [18]) was 1.5 °C. It also gave a ΔTm (Calf thymus DNA [19]) of 3.8 °C, a ΔTm (Nucleic Acid [20]) of 5.3 °C and a ΔTm (Nucleic Acid [21]) of 0 °C. For the same compound, the Activity (Calf thymus DNA [22]) was “Active”, the Activity (Nucleic Acid [23]) was “Active” and the Activity (Nucleic Acid [24]) was “Active”. For the same compound, the inhibition at 100 µM (MIA PaCa-2 [25]) was 35%, the Activity (MIA PaCa-2 [26]) was “Dose-dependent effect” and the Activity (MIA PaCa-2 [27]) was “Active”. For the same compound, the Activity (HEp-2) was “Active”, the Activity (HT-29) was “Active” and the RFU (Nucleic Acid [28]) was -6.9. The RFU (Nucleic Acid [29]) was 23.5, the RFU (Nucleic Acid [30]) was 0.3 and the RFU (Nucleic Acid [31]) was -13.5. For the same compound, the RFU (Nucleic Acid [32]) was 34.2, the Tm (Calf thymus DNA [33]) was 72.7 °C and the Tm (Calf thymus DNA [34]) was 75.6 °C. The Tm (Nucleic Acid [35]) was 60.7 °C, the Tm (Nucleic Acid [36]) was 84.1 °C and the Tm (Calf thymus DNA [37]) was 81.7 °C. It also gave a Tm (Calf thymus DNA [38]) of 83.1 °C, a Tm (Nucleic Acid [39]) of 70.2 °C and a Tm (Nucleic Acid [40]) of 71 °C. The Tm (Nucleic Acid [41]) was 51.5 °C, the ΔTm (Nucleic Acid [42]) was -0.1 °C and the Tm (Nucleic Acid [43]) was 30.7 °C.
